Measurements taken from patent US11230526B1, “Cylcoalkenyl derivatives useful as agonists of the GPR120 and/or GPR40 receptors” (Janssen Pharmaceutica NV, priority 2018, dated 2022).
Where “and” joins values, the source holds several entries; their conditions need not be identical. Equal entries are not always repeated.

How the values were obtained:
Type in all cases: cell-based
Human GPR120 short form = target: T1, Human GPR120 short form (Homo sapiens, UniProt Q5NUL3); assay: Human GPR120 calcium flux assay, Procedure Calcium B (4200 cells/well)
T1 construct: expressed in transfected cells
T1 sequence (Q5NUL3 1-361): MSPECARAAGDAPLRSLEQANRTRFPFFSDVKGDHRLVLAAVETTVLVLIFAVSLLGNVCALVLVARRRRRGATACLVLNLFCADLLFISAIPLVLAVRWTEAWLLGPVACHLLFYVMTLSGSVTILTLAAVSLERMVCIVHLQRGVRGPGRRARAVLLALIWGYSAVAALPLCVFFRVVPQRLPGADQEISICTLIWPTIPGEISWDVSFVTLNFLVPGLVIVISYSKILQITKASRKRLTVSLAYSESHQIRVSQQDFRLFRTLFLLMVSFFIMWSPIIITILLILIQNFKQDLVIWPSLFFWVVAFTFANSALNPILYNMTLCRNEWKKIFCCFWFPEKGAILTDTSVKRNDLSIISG
Method in brief: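 HEK293 cells stably expressing human GPR120 (NM_001195755.1), 4200 cells/well, starved 1 h and loaded with Fluo-4 NW plus probenecid. Ligand-evoked calcium flux read on FLIPR for 300 s after a 10 s baseline. RFU = Fmax−Fmin; EC50 from four-parameter concentration-response fit.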

[1] = target: T2, long form of human GPR120 (Homo sapiens, UniProt Q5NUL3); assay: Human GPR120 DiscoveRx PathHunter Beta-Arrestin assay, Procedure β-arrestin A
T2 construct: host or cells: PathHunter CHO-K1 GPR120 β-Arrestin Cell Line
Excerpt: Human GPR120 DiscoveRx PathHunter® Beta-Arrestin Assay Assay Principle:
The binding of an agonist (medium/long chain fatty acids or small molecule agonists) to the G-protein-coupled receptor GPR120 activates phospholipase C, leading to release of intracellular Ca^+2 through the generation of inositol 1,4,5-trisphosphate (InsP3 or IP3). GPR120 activation can also trigger intracellular signaling via recruitment of Beta-Arrestin. In the present method, agonist-induced activation of the human GPR120 receptor is monitored through the use of PathHunter® CHO-K1 GPR120 Beta-Arrestin Cell Line engineered by DiscoveRx, as detailed below. The cell lines are designed to co-express both the ProLink/Enzyme Donor (PK)-tagged GPCR and the Enzyme […] (EA)-tagged Beta-Arrestin fusion proteins. Upon GPR120 receptor stimulation/activation, the EA-tagged Beta-Arrestin portion is translocated to the tagged receptor, where the two enzyme fragments are brought within close proximity. Under these conditions, these fragments can interact and form an active Beta-gal enzyme complex through Enzyme Fragment Complementation (EFC). This active Beta-gal complex can enzymatically hydrolyse the substrate to produce a detectable light signal; therefore, activation as a function of agonist concentration can be expressed as an EC50 value to determine relative compound activities. This in vitro assay therefore serves to assess compound agonist activity of the GPR120.
In Procedure β-arrestin A, the cell used were PathHunter® CHO-K1 GPR120 β-Arrestin Cell Line, expressing the long form of human GPR120 (Genbank accession number NM_181745), with 3000 cells per well.
The selected CHO-K1 GPR120 β-Arrestin cells were cultured in Ham's F12 media supplemented with 10% fetal bovine serum (FBS), 1% Glutamine, 1×p/s, 800 μg/mL G418 and 300 μg/mL Hygromycin B (for selection). Cell stocks were maintained and grown in a sub-confluent state using standard cell culture procedures. The day before the experiment, the cells were harvested with non-enzymatic cell dissociation buffer and re-suspended in complete growth media at the desired concentration. A Corning 384-plate was then seeded with the proper number of cells in a volume of 25 μL, per well. The seeded plates were incubated overnight at 37° C.
On the day of the experiment, the Assay Buffer containing (a) HBSS with Ca^++ and Mg^++, (b) 20 mM HEPES, and (c) 0.1% BSA stabilizer (pH 7.4) was prepared. The growth medium was gently removed from the cell plates and 20 μL of Assay Buffer added to each well. The plate was then incubated at 37° C. for 60 min. Test compounds were serially diluted in Assay Buffer to desired concentrations (more particularly to one or more of the following μM concentrations: 25, 12.5, 6.25, 3.12, 1.56, 0.78, 0.39, 0.19, 0.10, 0.05, 0.02, 0.01). Five μL of compound dilution was then added to each well and the plate incubated at 37° C. for 90 min. The detection reagents were prepared according to the manufacture's instruction. Twelve μL of the detection reagents were added to each well and the plate incubated at room temperature for 60 min.
The plates were read on an EnVision instrument, using Protocol name: Luminescence, Plate type: 384 Costar, Measurement height: 3 mm, Measurement time: 1 s, Aperture: 384 Plate aperture. The % Activity relative to the positive control was calculated using the following equation:
The % Activity values were plotted versus the concentration of test compound and fitted to a sigmoidal dose-response curve with a Hill slope=1 (fixed value) using nonlinear regression with GraphPad Prism 5.0 to calculate the EC50 values. The Fitting Equation was: Y=Bottom+(Top-Bottom)/(1+10^((Log EC50−X)*HillSlope)), where X is the log of the concentration and Y is the response.

human GPR40 = target: T3, human GPR40 (Homo sapiens, UniProt O14842); assay: GPR40 calcium flux assay, human GPR40; conditions: HEK293 cells stably expressing GPR40; table does not say human or rat
T3 construct: expressed in transfected cells
Method in brief: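 Cells preincubated 1 h at 37° C. in HBSS, 20 mM HEPES, 0.1% BSA, then Fluo 8 calcium dye 30 min at 37° C. and 15 min at room temperature.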

T3 sequence (O14842 whole entry): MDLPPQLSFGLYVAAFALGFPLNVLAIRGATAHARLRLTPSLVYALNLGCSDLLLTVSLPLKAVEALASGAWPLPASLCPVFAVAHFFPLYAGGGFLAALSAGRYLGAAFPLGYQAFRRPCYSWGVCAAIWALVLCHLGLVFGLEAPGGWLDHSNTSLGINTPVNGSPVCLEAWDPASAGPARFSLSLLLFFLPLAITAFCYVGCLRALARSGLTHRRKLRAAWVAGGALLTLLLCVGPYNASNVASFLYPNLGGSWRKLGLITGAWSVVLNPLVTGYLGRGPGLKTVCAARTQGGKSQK
T2 sequence (Q5NUL3 1-377 isoform Q5NUL3-1): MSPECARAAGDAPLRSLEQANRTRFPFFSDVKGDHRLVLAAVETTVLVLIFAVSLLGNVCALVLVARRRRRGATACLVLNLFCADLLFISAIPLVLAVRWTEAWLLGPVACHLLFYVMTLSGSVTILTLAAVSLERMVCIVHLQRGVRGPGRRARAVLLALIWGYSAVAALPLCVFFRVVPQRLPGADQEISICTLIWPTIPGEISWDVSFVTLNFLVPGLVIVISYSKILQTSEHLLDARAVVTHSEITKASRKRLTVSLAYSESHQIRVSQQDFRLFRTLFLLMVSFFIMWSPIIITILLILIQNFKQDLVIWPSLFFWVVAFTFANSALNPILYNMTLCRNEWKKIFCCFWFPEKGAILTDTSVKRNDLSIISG
T2 sequence (P32121 whole entry partner): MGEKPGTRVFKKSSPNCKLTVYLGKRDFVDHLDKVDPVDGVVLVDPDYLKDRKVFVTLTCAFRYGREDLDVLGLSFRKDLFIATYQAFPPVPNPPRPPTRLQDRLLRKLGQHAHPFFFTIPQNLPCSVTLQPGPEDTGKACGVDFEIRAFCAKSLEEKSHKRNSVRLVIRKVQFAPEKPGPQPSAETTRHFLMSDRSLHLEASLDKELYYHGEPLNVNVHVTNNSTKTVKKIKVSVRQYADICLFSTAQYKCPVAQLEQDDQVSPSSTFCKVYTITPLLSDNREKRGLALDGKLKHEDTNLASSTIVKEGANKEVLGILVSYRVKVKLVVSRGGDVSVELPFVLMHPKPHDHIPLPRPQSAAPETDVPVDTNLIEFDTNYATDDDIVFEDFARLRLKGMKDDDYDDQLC

Structure (SMILES) | EC50 (Human GPR120 short form) [nM] | EC50 [1] [nM] | EC50 (human GPR40)
Cc1cc(CCC(=O)O)cc(Br)c1OCC1=C(c2ccc(Cl)cc2)CCC1 [Compound 30, 3-[3-bromo-4-[[2-(4-chlorophenyl)cyclopenten-1-yl]methoxy]-5-methyl-phenyl]Propanoic Acid] | 461 | 512 | > 5 µM
CC(Cc1ccc(OCC2=C(c3ccc(Cl)cc3)CCC2)c(F)c1)C(=O)O (stereo not drawn) [Compound 34, 3-[4-[[2-(4-chlorophenyl)cyclopenten-1-yl]methoxy]-3-fluoro-phenyl]-2-methyl-Propanoic Acid] |  | 680 | > 5 µM
O=C(O)CCc1ccc(OCC2=C(c3ccc(Cl)cc3)CCC2)cc1C(F)(F)F [Compound 39, 3-[4-[[2-(4-chlorophenyl)cyclopenten-1-yl]methoxy]-2-(trifluoromethyl)phenyl]Propanoic Acid] | 215 | 491 | 0.131 µM and 0.182 µM
Cc1c(CCC(=O)O)cc(Br)c(OCC2=C(c3ccc(Cl)cc3)CCC2)c1Br [Compound 68] | 517 | 1940 | > 5 µM
O=C(O)CCc1ccc(OCC2=C(c3ccc(Cl)cc3)CCC2)cc1OC(F)(F)F [Compound 96, 3-[4-[[2-(4-chlorophenyl)cyclopenten-1-yl]methoxy]-2-(trifluoromethoxy)phenyl]Propanoic Acid] | 875 | 981 | 1.78 µM
COc1cc(OCC2=C(c3ccc(Cl)cc3)CCC2)ccc1CCC(=O)O [Compound 97, 3-[4-[[2-(4-chlorophenyl)cyclopenten-1-yl]methoxy]-2-methoxy-phenyl]Propanoic Acid] | 237 | 754 | 0.834 µM
O=C(O)CCc1ccc(OCC2=C(c3ccc(Cl)cc3)CCC2)cc1-c1ccccc1 [Compound 136, 3-[4-[[2-(4-chlorophenyl)cyclopenten-1-yl]methoxy]-2-phenyl-phenyl]Propanoic Acid] |  | 788 | > 5 µM
O=C(O)CCc1ccc(OCC2=C(c3ccc(Cl)cc3)CCC2)cc1Cl [Compound 143, 3-[2-chloro-4-[[2-(4-chlorophenyl)cyclopenten-1-yl]methoxy]phenyl]Propanoic Acid] |  | 466 | 0.365 µM
Cc1cc(CC(C)C(=O)O)ccc1OCC1=C(c2ccc(F)cc2)CCC1 (stereo not drawn) [Compound 160, 3-[4-[[2-(4-fluorophenyl)cyclopenten-1-yl]methoxy]-3-methyl-phenyl]-2-methyl-Propanoic Acid] | 215 | 528 | > 5 µM
CCc1cc(OCC2=C(c3ccc(Cl)cc3)CCC2)ccc1CCC(=O)O [Compound 161, 3-[4-[[2-(4-chlorophenyl)cyclopenten-1-yl]methoxy]-2-ethyl-phenyl]Propanoic Acid] |  | 680 | 0.401 µM
CC(C)c1cc(OCC2=C(c3ccc(Cl)cc3)CCC2)ccc1CCC(=O)O [Compound 167, 3-[4-[[2-(4-chlorophenyl)cyclopenten-1-yl]methoxy]-2-isopropyl-phenyl]Propanoic Acid] | 503 | 727 | 1.25 µM
O=C(O)CCc1cc(F)c(OCC2=C(c3cccs3)CCC(F)(F)C2)c(F)c1 [Compound 559, 3-[4-[[5,5-difluoro-2-(2-thienyl)cyclohexen-1-yl]methoxy]-3,5-difluoro-phenyl]Propanoic Acid] | 238 | 409 | 
Cc1c(CCC(=O)O)ccc(OCC2=C(c3ccc(Cl)cc3)CC(F)(F)CC2)c1C [Compound 568, 3-[4-[[2-(4-chlorophenyl)-4,4-difluoro-cyclohexen-1-yl]methoxy]-2,3-dimethyl-phenyl]Propanoic Acid] | 202 | 363 | 

Now those with a lower EC50 [1], led by results:

EC50 (Human GPR120 short form) [nM] | EC50 [1] [nM] | EC50 (human GPR40) | Structure (SMILES)
24 | 155 | > 5 µM | Cc1c(CCC(=O)O)ccc(OCC2=C(c3ccc(F)cc3)CC(F)(F)C2)c1C [Compound 10]
193 | 235 | > 5 µM | Cc1cc(CC(C)C(=O)O)ccc1OCC1=C(c2ccc(Cl)cc2)CCC1 (stereo not drawn) [Compound 36, 3-[4-[[2-(4-chlorophenyl)cyclopenten-1-yl]methoxy]-3-methyl-phenyl]-2-methyl-Propanoic Acid]
61 | 340 | > 5 µM | Cc1cc(CCC(=O)O)ccc1OCC1=C(c2ccc(F)cc2)CCC1 [Compound 42]
207 | 208 | 3.03 µM | O=C(O)CCc1ccc(OCC2=C(c3ccc(F)cc3)CCC2)cc1 [Compound 43, 3-[4-[[2-(4-fluorophenyl)cyclopenten-1-yl]methoxy]phenyl]Propanoic Acid]
136 | 123 | > 5 µM | O=C(O)CCc1ccc(OCC2=C(c3ccc(F)cc3)CCC2)c(F)c1 [Compound 49]
73 | 167 | > 5 µM | Cc1cc(OCC2=C(c3ccc(Cl)cc3)CCC2)c(Br)cc1CCC(=O)O [Compound 67]
44 | 147 | > 5 µM | O=C(O)CCc1ccc(OCC2=C(c3ccc(Cl)cc3)CCC2)c(Cl)c1Cl [Compound 99, 3-[2,3-dichloro-4-[[2-(4-chlorophenyl)cyclopenten-1-yl]methoxy]phenyl]Propanoic Acid]
81 | 168 | > 5 µM | Cc1c(CCC(=O)O)ccc(OCC2=C(c3ccc(F)cc3)CC(F)C2)c1C (stereo not drawn) [Compound 100]
24 | 29 | 4 µM | Cc1cc(CCC(=O)O)ccc1OCC1=C(c2ccc(Cl)cc2)CC(F)(F)C1 [Compound 166, 3-[4-[[2-(4-chlorophenyl)-4,4-difluoro-cyclopenten-1-yl]methoxy]-3-methyl-phenyl]Propanoic Acid]
71 | 120 |  | Cc1ccc(C2=C(COc3ccc(CCC(=O)O)cc3C)CC(F)(F)CC2)s1 [Compound 561, 3-[4-[[5,5-difluoro-2-(5-methyl-2-thienyl)cyclohexen-1-yl]methoxy]-3-methyl-phenyl]Propanoic Acid]
120 | 237 |  | Cc1c(CCC(=O)O)ccc(OCC2=C(c3ccc(Cl)s3)CCC(F)(F)C2)c1C [Compound 563, 3-[4-[[2-(5-chloro-2-thienyl)-5,5-difluoro-cyclohexen-1-yl]methoxy]-2,3-dimethyl-phenyl]Propanoic Acid]
90 | 176 |  | Cc1ccc(C2=C(COc3ccc(CCC(=O)O)c(C)c3C)CC(F)(F)CC2)s1 [Compound 564, 3-[4-[[5,5-difluoro-2-(5-methyl-2-thienyl)cyclohexen-1-yl]methoxy]-2,3-dimethyl-phenyl]Propanoic Acid]
